Results on 14 compounds are retold here after patent publication US8062671B2, “Oily skin preparation for external use” (Shiseido Co., Ltd., priority 2003, dated 2011).

The experiment concerns the target urokinase (UK) (Homo sapiens, UniProt P00749). Description: Measuring method of UK blocking rate (S2444 substrate, absorbance 405 nm). The format is biochemical. Particulars: ion concentration 100 ppm; Tris-HCl buffer pH7.5. As to the method:
About the complex powder of this invention, zinc oxide elutes zinc ion and inactivates plasminogen activator. UK is a kind of plasminogen activator. Measuring method of UK blocking rate. […] Thereafter, 20 μL of 12% trichloroacetic acid solution is added to stop the reaction, and powder is filtered. Absorbance of the filtrate at 405 nm is measured to obtain UK activity in an assessment system and UK blocking rate of the sample is calculated.
With `[Al+3]` [Al^3+], the “UK blocking rate (%)” value came to 16%. As for `[Ba+2]` [Ba^2+], the “UK blocking rate (%)” value is 0%.

On to `[Ca+2]` [Ca^2+], for which the “UK blocking rate (%)” value was determined as 0%.

For the compound `[Ce+3]` [Ce^3+], the “UK blocking rate (%)” value is 5%. Then `[Co+2]` [Co^2+], with 27%; and `[Cu+2]` [Cu^2+], with 36%. `[K+]` [K^+]: the “UK blocking rate (%)” value stood at 0%. As for `[Li+]` [Li^+], the “UK blocking rate (%)” value is listed as 0%. As for `[Mg+2]` [Mg^2+], the figure is 0%; as for `[Mn+2]` [Mn^2+], 0%; as for `[Na+]` [Na^+], 0%. As for `[Ni+2]` [Ni^2+], the figure is 30%; as for `[Zn+2]` [Zn^2+, zinc ion], 52%. As to `[Zr+4]` [Zr^4+], the “UK blocking rate (%)” value is on record as 45%.
